# In paper PMC9603010 (ACS Bio & Med Chem Au, 2022):
# Where a name gives a salt, the structure may show the parent alone.
# How the values were obtained:
# HEK293T cells = details: 48 h, multiple concentrations
# [1] = system: SARS-CoV-2 (USA-WA1/2020); type: cell-based
SMILES,impact on cell viability (HEK293T cells),reduction of the number of infected cells compared to vehicle [1]
"NC(CO)C(=O)NNCc1ccc(O)c(O)c1O (stereo not drawn) [benserazide, reference compound]",without significant impact on cell viability,
O=C(O[C@@H]1Cc2c(O)cc(O)cc2O[C@@H]1c1cc(O)c(O)c(O)c1)c1cc(O)c(O)c(O)c1 [epigallocatechin gallate],without significant impact on cell viability,
"c1ccc2c(c1)OCC(C1=NCCN1)O2 (stereo not drawn) [idazoxan hydrochloride, reference compound]",,more than 90%
"c1ccc2c(c1)OCC(C1=NCCN1)O2 (stereo not drawn) [idazoxan, reference compound]",without significant impact on cell viability,
COc1c(-c2coc3cc4c(cc3c2=O)CC(O)C(C)(C)O4)ccc2c1C=CC(C)(C)O2 (stereo not drawn) [mundulone],without significant impact on cell viability,
C=C1C(=O)O[C@H]2[C@H]1CC/C(C)=C/CC[C@@]1(C)O[C@@H]21 [parthenolide],without significant impact on cell viability,
